The target of assay [1] is T1, Sodium- and chloride-dependent GABA transporter 1 (Mus musculus, UniProt P31648). Briefly: Inhibition of mouse GAT1 expressed in HEK293 cells assessed as reduction in [3H]GABA uptake preincubated for 25 mins followed by [3H]GABA addition and measured after 4 mins by liquid scintillation counting method. The format is cell-based.
Assay [2] has as its target T1, Sodium- and chloride-dependent GABA transporter 1. As to the kind of experiment: Inhibition of NO711 binding to mouse GAT1 expressed in HEK293 cell membranes assessed as reduction in NO711 binding at incubated for 4 hrs in presence of NO711 by LC-ESI-MS/MS analysis relative to control.
In another assay the target is T2, GABA transporter 4 (Mus musculus, UniProt P31650).
T2 sequence (P31650 whole entry): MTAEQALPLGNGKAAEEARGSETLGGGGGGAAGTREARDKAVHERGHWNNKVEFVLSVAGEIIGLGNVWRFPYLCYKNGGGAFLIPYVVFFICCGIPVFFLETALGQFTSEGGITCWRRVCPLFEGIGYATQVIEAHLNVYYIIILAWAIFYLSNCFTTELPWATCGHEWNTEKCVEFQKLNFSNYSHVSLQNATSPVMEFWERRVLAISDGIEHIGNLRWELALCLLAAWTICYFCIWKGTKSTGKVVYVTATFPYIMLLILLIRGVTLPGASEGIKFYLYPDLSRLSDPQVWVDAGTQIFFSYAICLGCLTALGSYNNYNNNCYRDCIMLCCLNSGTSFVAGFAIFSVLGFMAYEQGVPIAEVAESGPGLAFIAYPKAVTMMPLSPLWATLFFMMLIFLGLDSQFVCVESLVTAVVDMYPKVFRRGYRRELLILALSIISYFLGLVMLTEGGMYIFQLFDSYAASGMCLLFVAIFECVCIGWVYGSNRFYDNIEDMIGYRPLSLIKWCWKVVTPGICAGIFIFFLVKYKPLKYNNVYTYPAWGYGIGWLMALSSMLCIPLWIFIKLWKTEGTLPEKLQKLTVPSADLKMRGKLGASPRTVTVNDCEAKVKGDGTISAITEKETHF
As to the kind of experiment: Inhibition of mouse GAT4 expressed in HEK293 cells assessed as reduction in [3H]GABA uptake preincubated for 25 mins followed by [3H]GABA addition and measured after 4 mins by liquid scintillation counting method. The format is cell-based.

Assay [3] addresses T3, GABA transporter 4 (Mus musculus) (UniProt P31650).
T3 sequence (whole entry): T2 sequence (P31650 whole entry)
As to the kind of experiment: Inhibition of mouse GAT4 expressed in HEK293 cells assessed as remaining [3H]GABA uptake at 100 uM preincubated for 25 mins followed by [3H]GABA addition and measured after 4 mins by liquid scintillation counting method. The format is cell-based.

The subject of assay [4] is Sodium- and chloride-dependent GABA transporter 2 (Mus musculus). Briefly: Inhibition of mouse GAT3 expressed in HEK293 cells assessed as remaining [3H]GABA uptake at 100 uM preincubated for 25 mins followed by [3H]GABA addition and measured after 4 mins by liquid scintillation counting method.
The subject of assay [5] is Sodium- and chloride-dependent betaine transporter (Mus musculus). Briefly: Inhibition of mouse GAT2 expressed in HEK293 cells assessed as remaining [3H]GABA uptake at 100 uM preincubated for 25 mins followed by [3H]GABA addition and measured after 10 mins by liquid scintillation counting method relative to control.

For orientation: IC50 means the concentration needed to halve the response being measured. For the molecule `O=C(O)C1CCNC1` (stereo not given), the IC50 in assay [1] is 67600 nM.
As usually defined, the Ki is a measure of affinity in units of concentration, obtained from inhibition or displacement. Consider `COc1cccc(F)c1-c1ccccc1/C=N/OCCN1CCC(C(=O)O)C1` (stereo not given), for which the half-maximal inhibitory concentration (IC50) was 1910 nM in assay [1] and at least 100000 nM at GABA transporter 4. The Ki in assay [2] was 407 nM. Also, the values for the Activity in assay [3], in assay [4] and in assay [5] were 89%, 93% and 86%, respectively.
With `O=C(O)C1CCN(CCO/N=C/c2ccccc2-c2ccc(Cl)cc2Cl)C1` (stereo not given), the IC50 was 2290 nM in assay [1] and at least 100000 nM at GABA transporter 4. For the same molecule, the Ki in assay [2] was 389 nM. For the same molecule, the values for the Activity in assay [3] and in assay [4] were 56% and 62%, respectively.
Consider `O=C(O)C1CCN(CCO/N=C/c2ccccc2-c2ccc(F)cc2Cl)C1` (stereo not given), for which the IC50 in assay [1] is 4790 nM; at GABA transporter 4 it was at least 100000 nM. The inhibition constant (Ki) in assay [2] is 692 nM. The Activity is 66% in assay [3], 75% in assay [4] and 52% in assay [5].
As a reminder, the Kd is the equilibrium constant for the complex coming apart. Consider `O=C(O)C1=CCCN(CCON=C(c2ccccc2)c2ccccc2)C1`, for which the Kd in assay [2] came to 26.5 nM.
As to `O=C(O)CC1CCNC1` (stereo not given), the concentration for half-maximal inhibition (IC50) in assay [1] is 4070 nM.

(Values after ChEMBL document CHEMBL4340561, “Application of the concept of oxime library screening by mass spectrometry (MS) binding assays to pyrrolidine-3-carboxylic acid derivatives as potential inhibitors of γ-aminobutyric acid transporter 1 (GAT1)” (Bioorg Med Chem, 2019).)
